Measurements taken from patent publication US20080280991A1, “SUBSTITUTED NAPHTHALENES” (AUSPEX PHARMACEUTICALS, INC., priority 2007, published 2008).

Assays:
[1] = In vitro liver microsomal stability assay; format: in vitro ADME; conditions: 1 mg per mL liver microsome protein, NADPH-generating system, 5 microgram per mL compound, 37° C., 0-60 min, LC/MS/MS
Protocol: Liver microsomal stability assays are conducted at 1 mg per mL liver microsome protein with an NADPH-generating system in 2% NaHCO3 (2.2 mM NADPH, 25.6 mM glucose 6-phosphate, 6 units per mL glucose 6-phosphate dehydrogenase and 3.3 mM MgCl2). Test compounds are prepared as solutions in 20% acetonitrile-water and added to the assay mixture (final assay concentration 5 microgram per mL) and incubated at 37° C. Final concentration of acetonitrile in the assay should be <1%. Aliquots ([…]) are taken out at times 0, 15, 30, 45, and 60 min, and diluted with ice cold acetonitrile (200 μL) to stop the reactions. Samples are centrifuged at 12,000 RPM for 10 min to precipitate proteins. Supernatants are transferred to microcentrifuge tubes and stored for LC/MS/MS analysis of the degradation half-life of the test compounds. […] For example, the degradation half-life of Example 9 was increased by 20% as compared to non-isotopically enriched agomelatine.

[2] = test system: melatonin receptor; conditions: relative to agomelatine; cited from earlier work
[3] = in vivo; cited from earlier work

## [2H]C([2H])([2H])Oc1ccc2cccc(C([2H])([2H])C([2H])([2H])NC(=O)C([2H])([2H])[2H])c2c1 [Example 9, d10-N-[2-(7-Methoxy-naphthalen-1-yl)-ethyl]-acetamide]
[1]
  increase in the degradation half-life as compared to the non-isotopically enriched drug (agomelatine): 20%

## CC(=O)NCCc1cccc2ccc(O)cc12 [S 21517]
[2]
  fold less potency for the melatonin receptor than the parent compound (agomelatine): 100 fold

## COc1ccc2cccc(CCNC(C)=O)c2c1 [agomelatine, N-[2-(7-Methoxy-naphthalen-1-yl)-ethyl]-acetamide]
[3]
  terminal elimination half-life: 2.3 h
